# Reference: article PMC5433425 (PeerJ, 2017)
# Peptide text beside a SMILES is read from it. * marks the point of attachment. βNA = c1ccc2cc(N*)ccc2c1
# What was measured:
# [1] = system: E. coli AG100tet; experiment: EtBr efflux by real-time fluorometry; settings: 80 µM
# Method: Control tubes with only cells and cells with and without 0.4% glucose were included. The fluorescence was measured in a Rotor-Gene 3000 and the data was acquired every 30 s for 30 min at 37 °C. The efflux activity was quantified by comparing the fluorescence data obtained under conditions that promote efflux (presence of glucose and absence of efflux inhibitor) with the data from the control in which the bacteria are under conditions of no efflux (presence of an inhibitor and no energy source).
# [2] = system: E. coli AG100; experiment: EtBr accumulation by real-time fluorometry; settings: EtBr 1 µg/ml + inhibitor 80 µM
structure (smiles),measurement,setting,value
NC(N)=NCCC[C@H](NC(=O)[C@@H](N)Cc1ccccc1)C(=O)Nc1ccc2ccccc2c1 [PAβN] (H-Phe-Arg-βNA),"Fluorescence raw data, Channel Cycling A.530/585hp","[1]; cycle 1, + glucose",2.731
same,"Fluorescence raw data, Channel Cycling A.530/585hp","[1]; cycle 1, without glucose",3.207
same,"Fluorescence raw data, Channel Cycling A.530/585hp","[1]; cycle 2, + glucose",2.53
same,"Fluorescence raw data, Channel Cycling A.530/585hp","[1]; cycle 2, without glucose",3.035
same,"Fluorescence raw data, Channel Cycling A.530/585hp","[1]; cycle 3, + glucose",2.342
same,"Fluorescence raw data, Channel Cycling A.530/585hp","[1]; cycle 3, without glucose",2.872
same,"Fluorescence raw data, Channel Cycling A.530/585hp","[1]; cycle 4, without glucose",2.787
same,"Fluorescence raw data, Channel Cycling A.530/585hp","[1]; cycle 5, without glucose",2.697
same,"Fluorescence raw data, Channel Cycling A.530/585hp","[1]; cycle 6, without glucose",2.616
same,"Fluorescence raw data, Channel Cycling A.530/585hp","[1]; cycle 7, without glucose",2.625
same,"Fluorescence raw data, Channel Cycling A.530/585hp","[1]; cycle 8, without glucose",2.608
same,"Fluorescence raw data, Channel Cycling A.530/585hp","[1]; cycle 9, + glucose",1.745
same,"Fluorescence raw data, Channel Cycling A.530/585hp","[1]; cycle 9, without glucose",2.567
same,"Fluorescence raw data, Channel Cycling A.530/585hp","[1]; cycle 10, + glucose",1.7497
same,"Fluorescence raw data, Channel Cycling A.530/585hp","[1]; cycle 10, without glucose",2.517
same,"Fluorescence raw data, Channel Cycling A.530/585hp","[1]; cycle 11, + glucose",1.716
same,"Fluorescence raw data, Channel Cycling A.530/585hp","[1]; cycle 11, without glucose",2.463
same,"Fluorescence raw data, Channel Cycling A.530/585hp","[1]; cycle 12, + glucose",1.744
same,"Fluorescence raw data, Channel Cycling A.530/585hp","[1]; cycle 12, without glucose",2.462
same,"Fluorescence raw data, Channel Cycling A.530/585hp","[1]; cycle 13, + glucose",1.706
same,"Fluorescence raw data, Channel Cycling A.530/585hp","[1]; cycle 13, without glucose",2.458
same,"Fluorescence raw data, Channel Cycling A.530/585hp","[1]; cycle 14, + glucose",1.697
same,"Fluorescence raw data, Channel Cycling A.530/585hp","[1]; cycle 14, without glucose",2.431
same,"Fluorescence raw data, Channel Cycling A.530/585hp","[1]; cycle 15, + glucose",1.701
same,"Fluorescence raw data, Channel Cycling A.530/585hp","[1]; cycle 15, without glucose",2.375
same,"Fluorescence raw data, Channel Cycling A.530/585hp","[1]; cycle 16, + glucose",1.676
same,"Fluorescence raw data, Channel Cycling A.530/585hp","[1]; cycle 16, without glucose",2.373
same,"Fluorescence raw data, Channel Cycling A.530/585hp","[1]; cycle 17, + glucose",1.744
same,"Fluorescence raw data, Channel Cycling A.530/585hp","[1]; cycle 17, without glucose",2.339
same,"Fluorescence raw data, Channel Cycling A.530/585hp","[1]; cycle 18, + glucose",1.635
same,"Fluorescence raw data, Channel Cycling A.530/585hp","[1]; cycle 18, without glucose",2.379
same,"Fluorescence raw data, Channel Cycling A.530/585hp","[1]; cycle 19, + glucose",1.694
same,"Fluorescence raw data, Channel Cycling A.530/585hp","[1]; cycle 19, without glucose",2.342
same,"Fluorescence raw data, Channel Cycling A.530/585hp","[1]; cycle 20, + glucose",1.701
same,"Fluorescence raw data, Channel Cycling A.530/585hp","[1]; cycle 20, without glucose",2.323
same,"Fluorescence raw data, Channel Cycling A.530/585hp","[1]; cycle 21, + glucose",1.621
same,"Fluorescence raw data, Channel Cycling A.530/585hp","[1]; cycle 21, without glucose",2.26
same,"Fluorescence raw data, Channel Cycling A.530/585hp","[1]; cycle 22, + glucose",1.645
same,"Fluorescence raw data, Channel Cycling A.530/585hp","[1]; cycle 22, without glucose",2.252
same,"Fluorescence raw data, Channel Cycling A.530/585hp","[1]; cycle 23, + glucose",1.597
same,"Fluorescence raw data, Channel Cycling A.530/585hp","[1]; cycle 23, without glucose",2.314
same,"Fluorescence raw data, Channel Cycling A.530/585hp","[1]; cycle 24, + glucose",1.6798
same,"Fluorescence raw data, Channel Cycling A.530/585hp","[1]; cycle 24, without glucose",2.2447
same,"Fluorescence raw data, Channel Cycling A.530/585hp","[1]; cycle 25, + glucose",1.636
same,"Fluorescence raw data, Channel Cycling A.530/585hp","[1]; cycle 25, without glucose",2.272
same,"Fluorescence raw data, Channel Cycling A.530/585hp","[1]; cycle 26, + glucose",1.633
same,"Fluorescence raw data, Channel Cycling A.530/585hp","[1]; cycle 26, without glucose",2.288
same,"Fluorescence raw data, Channel Cycling A.530/585hp","[1]; cycle 27, + glucose",1.617
same,"Fluorescence raw data, Channel Cycling A.530/585hp","[1]; cycle 27, without glucose",2.2961
same,"Fluorescence raw data, Channel Cycling A.530/585hp","[1]; cycle 28, + glucose",1.668
same,"Fluorescence raw data, Channel Cycling A.530/585hp","[1]; cycle 28, without glucose",2.2127
same,"Fluorescence raw data, Channel Cycling A.530/585hp","[1]; cycle 29, + glucose",1.644
same,"Fluorescence raw data, Channel Cycling A.530/585hp","[1]; cycle 29, without glucose",2.236
same,"Fluorescence raw data, Channel Cycling A.530/585hp","[1]; cycle 30, + glucose",1.668
same,"Fluorescence raw data, Channel Cycling A.530/585hp","[1]; cycle 30, without glucose",2.282
same,"Fluorescence raw data, Channel Cycling A.530/585hp","[1]; cycle 31, + glucose",1.6751
same,"Fluorescence raw data, Channel Cycling A.530/585hp","[1]; cycle 31, without glucose",2.164
same,"Fluorescence raw data, Channel Cycling A.530/585hp","[1]; cycle 32, + glucose",1.6187
same,"Fluorescence raw data, Channel Cycling A.530/585hp","[1]; cycle 32, without glucose",2.166
same,"Fluorescence raw data, Channel Cycling A.530/585hp","[1]; cycle 33, + glucose",1.65
same,"Fluorescence raw data, Channel Cycling A.530/585hp","[1]; cycle 33, without glucose",2.197
same,"Fluorescence raw data, Channel Cycling A.530/585hp","[1]; cycle 34, + glucose",1.608
same,"Fluorescence raw data, Channel Cycling A.530/585hp","[1]; cycle 34, without glucose",2.188
same,"Fluorescence raw data, Channel Cycling A.530/585hp","[1]; cycle 35, + glucose",1.636
same,"Fluorescence raw data, Channel Cycling A.530/585hp","[1]; cycle 35, without glucose",2.154
same,"Fluorescence raw data, Channel Cycling A.530/585hp","[1]; cycle 36, + glucose",1.655
same,"Fluorescence raw data, Channel Cycling A.530/585hp","[1]; cycle 36, without glucose",2.1525
same,"Fluorescence raw data, Channel Cycling A.530/585hp","[1]; cycle 37, + glucose",1.639
same,"Fluorescence raw data, Channel Cycling A.530/585hp","[1]; cycle 37, without glucose",2.17
same,"Fluorescence raw data, Channel Cycling A.530/585hp","[1]; cycle 38, + glucose",1.617
same,"Fluorescence raw data, Channel Cycling A.530/585hp","[1]; cycle 38, without glucose",2.15
same,"Fluorescence raw data, Channel Cycling A.530/585hp","[1]; cycle 39, + glucose",1.593
same,"Fluorescence raw data, Channel Cycling A.530/585hp","[1]; cycle 39, without glucose",2.185
same,"Fluorescence raw data, Channel Cycling A.530/585hp","[1]; cycle 40, + glucose",1.564
same,"Fluorescence raw data, Channel Cycling A.530/585hp","[1]; cycle 40, without glucose",2.132
same,"Fluorescence raw data, Channel Cycling A.530/585hp","[1]; cycle 41, + glucose",1.567
same,"Fluorescence raw data, Channel Cycling A.530/585hp","[1]; cycle 41, without glucose",2.08
same,"Fluorescence raw data, Channel Cycling A.530/585hp","[1]; cycle 42, + glucose",1.587
same,"Fluorescence raw data, Channel Cycling A.530/585hp","[1]; cycle 42, without glucose",2.131
same,"Fluorescence raw data, Channel Cycling A.530/585hp","[1]; cycle 43, + glucose",1.59
same,"Fluorescence raw data, Channel Cycling A.530/585hp","[1]; cycle 43, without glucose",2.079
same,"Fluorescence raw data, Channel Cycling A.530/585hp","[1]; cycle 44, + glucose",1.59
same,"Fluorescence raw data, Channel Cycling A.530/585hp","[1]; cycle 44, without glucose",2.093
same,"Fluorescence raw data, Channel Cycling A.530/585hp","[1]; cycle 45, without glucose",2.121
same,"Fluorescence raw data, Channel Cycling A.530/585hp","[1]; cycle 46, without glucose",2.065
same,"Fluorescence raw data, Channel Cycling A.530/585hp","[1]; cycle 47, without glucose",2.081
same,"Fluorescence raw data, Channel Cycling A.530/585hp","[1]; cycle 48, without glucose",2.1149
same,"Fluorescence raw data, Channel Cycling A.530/585hp","[1]; cycle 49, without glucose",2.071
same,"Fluorescence raw data, Channel Cycling A.530/585hp","[1]; cycle 50, without glucose",2.047
same,"Fluorescence raw data, Channel Cycling A.530/585hp","[1]; cycle 51, without glucose",2.071
same,"Fluorescence raw data, Channel Cycling A.530/585hp","[1]; cycle 52, without glucose",2.107
same,"Fluorescence raw data, Channel Cycling A.530/585hp","[1]; cycle 53, without glucose",2.082
same,"Fluorescence raw data, Channel Cycling A.530/585hp","[1]; cycle 54, without glucose",2.046
same,"Fluorescence raw data, Channel Cycling A.530/585hp","[1]; cycle 55, without glucose",2.03
same,"Fluorescence raw data, Channel Cycling A.530/585hp","[1]; cycle 56, without glucose",2.023
same,"Fluorescence raw data, Channel Cycling A.530/585hp","[1]; cycle 57, without glucose",2.015
same,"Fluorescence raw data, Channel Cycling A.530/585hp","[1]; cycle 58, without glucose",2.049
same,"Fluorescence raw data, Channel Cycling A.530/585hp","[1]; cycle 59, without glucose",2.011
same,"Fluorescence raw data, Channel Cycling A.530/585hp","[1]; cycle 60, without glucose",2.05
same,"Fluorescence raw data, Channel Cycling A.530/585hp","[1]; cycle 61, without glucose",1.991
same,EtBr fluorescence,[2]; cycle 1,5.077
same,EtBr fluorescence,[2]; cycle 2,5.498
same,EtBr fluorescence,[2]; cycle 3,5.692
same,EtBr fluorescence,[2]; cycle 4,6.095
same,EtBr fluorescence,[2]; cycle 5,6.2405
same,EtBr fluorescence,[2]; cycle 6,6.476
same,EtBr fluorescence,[2]; cycle 7,6.738
same,EtBr fluorescence,[2]; cycle 8,6.948
same,EtBr fluorescence,[2]; cycle 9,7.121
same,EtBr fluorescence,[2]; cycle 10,7.401
same,EtBr fluorescence,[2]; cycle 11,7.525
same,EtBr fluorescence,[2]; cycle 12,7.725
same,EtBr fluorescence,[2]; cycle 13,8.024
same,EtBr fluorescence,[2]; cycle 14,8.041
same,EtBr fluorescence,[2]; cycle 15,8.277
same,EtBr fluorescence,[2]; cycle 16,8.537
same,EtBr fluorescence,[2]; cycle 17,8.7426
same,EtBr fluorescence,[2]; cycle 18,8.8367
same,EtBr fluorescence,[2]; cycle 19,8.945
same,EtBr fluorescence,[2]; cycle 20,9.137
same,EtBr fluorescence,[2]; cycle 21,9.31
same,EtBr fluorescence,[2]; cycle 22,9.534
same,EtBr fluorescence,[2]; cycle 23,9.8
same,EtBr fluorescence,[2]; cycle 24,9.927
same,EtBr fluorescence,[2]; cycle 25,10.0486
same,EtBr fluorescence,[2]; cycle 26,10.1364
same,EtBr fluorescence,[2]; cycle 27,10.3331
same,EtBr fluorescence,[2]; cycle 28,10.5844
same,EtBr fluorescence,[2]; cycle 29,10.7732
same,EtBr fluorescence,[2]; cycle 30,11.0863
